Assay results published in patent publication US7264935B2, “Potassium-dependent sodium-calcium exchanger” (Astellas Pharma Inc., priority 2002, dated 2007).
pIC50: −log10 of the molar value.

Columns and labels:
Format in all cases: cell-based
[1] = target: T1, novel potassium-dependent sodium-calcium exchanger consisting of the amino acid sequence of SEQ ID NO: 2 (Homo sapiens, UniProt Q8NFF2); assay: 45Ca uptake screening for inhibition of potassium-dependent sodium-calcium exchange activity in stable-expression Dede cells (SEQ ID NO: 2); conditions: exchanger of SEQ ID NO: 2; conditions of Example 6
T1 construct: expressed in transfected cells
T1 sequence (Q8NFF2 39-622): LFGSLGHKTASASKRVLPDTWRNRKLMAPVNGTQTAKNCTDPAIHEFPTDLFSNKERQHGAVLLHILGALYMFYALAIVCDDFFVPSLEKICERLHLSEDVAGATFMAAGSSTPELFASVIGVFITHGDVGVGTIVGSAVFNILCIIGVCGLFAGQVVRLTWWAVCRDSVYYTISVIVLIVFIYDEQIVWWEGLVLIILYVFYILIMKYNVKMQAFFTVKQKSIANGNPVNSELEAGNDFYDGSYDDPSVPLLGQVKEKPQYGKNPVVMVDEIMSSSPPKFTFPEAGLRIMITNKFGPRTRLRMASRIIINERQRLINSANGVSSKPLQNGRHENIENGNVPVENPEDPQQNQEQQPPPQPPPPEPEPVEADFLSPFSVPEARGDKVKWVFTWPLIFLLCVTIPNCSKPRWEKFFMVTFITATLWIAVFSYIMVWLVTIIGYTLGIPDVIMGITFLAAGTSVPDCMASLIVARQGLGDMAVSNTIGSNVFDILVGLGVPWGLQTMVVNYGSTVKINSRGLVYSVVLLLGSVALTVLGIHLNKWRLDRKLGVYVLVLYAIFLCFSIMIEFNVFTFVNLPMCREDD
Procedure: (§1) Sodium was incorporated into cells by changing the medium to an extracellular solution containing monensin [i.e., a solution containing 0.01 mmol/L monensin, 1 mmol/L ouabain, 146 mmol/L NaCl, 4 mmol/L KCl, 0.1 mmol/L CaCl2, 2 mmol/L MgCl2, 10 mmol/L glucose, 0.1% bovine serum albumin, and 10 mmol/L HEPES-Tris (pH=7.4)] and incubating the cells at 37° C. for 30 minutes. […]
(§2) The treated cells were washed with a washing solution containing 120 mmol/L choline chloride, 10 mmol/L LaCl3, and 10 mmol/L HEPES-Tris (pH=7.4) to remove calcium ions not incorporated, and then an intracellular calcium ion radioactivity was measured and analyzed by a liquid scintillation counter. In the HEK293 cells, Dede cells, or CHO-dhfr^− cells expressing the polypeptide consisting of the amino acid sequence of SEQ ID NO: 2 or 4, a higher radioactivity of approximately two times that obtained in the case of the extracellular solution A was measured when using the extracellular solution B (extracellular solution in which sodium was replaced with choline). Further, higher radioactivities of approximately five times and approximately ten times that obtained in the case of the extracellular solution A were measured when using the extracellular solutions C and D (extracellular solution containing potassium), respectively. […]

[2] = system: human peripheral polymorphonuclear leukocytes (PMNs); assay: fMLP-stimulated migration test of PMNs in Transwell chemotaxis chamber; conditions: for Number of migrating cells (relative value): 100 nmol/L fMLP, 37° C., 1 hour, DMSO = 100, average ± SD of three experiments; for migration of PMNs (result in words): 10, 30 and 100 μmol/L, fMLP-stimulated
Procedure: The compounds obtained in Example 6 were evaluated using human peripheral polymorphonuclear leukocytes (PMNs). A blood sample was obtained by collecting blood from a healthy adult. A ficoll solution for separation (mono-poly resolving medium; Dainippon Pharmaceutical) was poured into each centrifuge tube, and a fresh blood component was laid on the ficoll solution. Centrifugation was carried out at 400×g at room temperature for 30 minutes to separate the upper layer (monocytes), the intermediate layer (PMNs), and the precipitate (erythrocytes). Each layer was collected in such a way that they were not mixed with each other, suspended in a phosphate buffered saline (PBS), and recentrifuged. Each collected layer was suspended in an RPMI1640 medium containing 0.2% bovine serum albumin (BSA), and used in the following experiment after counting the number of cells. A portion of the resulting PMN component was stained by a hematoxylin and eosin stain to confirm that neutrophils (approximately 95%) and eosinophils (approximately 5%) were contained.
A migration test was carried out using a 24-well disposable chemotaxis chamber Transwell 3 μm; Corning). Each test solution in which compound A or B (final concentration=10 μmol/L, 30 μmol/L, and 100 μmol/L) were contained in a medium (0.2% BSA, RPMI1640 medium) containing 100 nmol/L formylmethionyl-leucinyl-phenylalanine (fMLP) was prepared, and 1 mL of each test solution was added to each of the lower wells. The collected PMNs were added to each of the upper wells (2.0×10^6 cells/well; 0.2 mL) and incubated at 37° C. for 1 hour. The numbers of cells which migrated to the lower wells were counted by a hemacytometer. The test was independently repeated three times.
Each value shown in Table 1 is a relative value when the value obtained in the case of using DMSO instead of the test compounds is regarded as 100. Further, each value shown in Table 1 is an average and a standard deviation (SD) on the basis of three independent experiments.

[3] = target: T2, novel potassium-dependent sodium-calcium exchanger consisting of the amino acid sequence of SEQ ID NO: 4 (Homo sapiens, UniProt Q8NFF2); assay: 45Ca uptake screening for inhibition of potassium-dependent sodium-calcium exchange activity in stable-expression Dede cells (SEQ ID NO: 4); conditions: exchanger of SEQ ID NO: 4; conditions of Example 6
T2 construct: expressed in transfected cells
T2 sequence (Q8NFF2 39-603 isoform Q8NFF2-3): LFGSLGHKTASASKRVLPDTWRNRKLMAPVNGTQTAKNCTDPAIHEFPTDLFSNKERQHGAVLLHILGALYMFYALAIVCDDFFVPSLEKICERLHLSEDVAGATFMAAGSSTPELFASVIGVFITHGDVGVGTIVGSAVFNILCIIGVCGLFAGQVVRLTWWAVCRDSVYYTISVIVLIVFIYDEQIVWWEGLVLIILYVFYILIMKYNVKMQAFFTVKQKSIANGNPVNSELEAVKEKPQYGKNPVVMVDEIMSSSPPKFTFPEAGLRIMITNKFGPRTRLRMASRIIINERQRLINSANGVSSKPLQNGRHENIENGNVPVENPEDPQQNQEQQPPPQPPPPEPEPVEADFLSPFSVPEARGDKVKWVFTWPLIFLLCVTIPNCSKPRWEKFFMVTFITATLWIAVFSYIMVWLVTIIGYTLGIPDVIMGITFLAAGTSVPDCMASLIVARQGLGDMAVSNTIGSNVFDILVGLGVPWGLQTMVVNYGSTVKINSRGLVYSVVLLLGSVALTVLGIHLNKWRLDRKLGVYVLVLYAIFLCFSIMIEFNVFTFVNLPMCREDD
Procedure: as §1, §2

pIC50 [1]	pIC50 [3]	SMILES	Number of migrating cells (relative value) ([2]; 10 μmol/L compound)	Number of migrating cells (relative value) ([2]; 30 μmol/L compound)	Number of migrating cells (relative value) ([2]; 100 μmol/L compound)	migration of PMNs (result in words) [2]
4.80	4.46	CS(=O)(=O)O.N=C(N)SCCc1ccc(OCc2ccc([N+](=O)[O-])cc2)cc1 [compound A, 2-[2-[4-(4-nitrobenzyloxy)phenyl]ethyl]isothiourea methanesulfonate]	78.18 ± 25.93	29.50 ± 26.16	16.84 ± 10.78	inhibited the migration of PMNs dose-dependently
4.69	4.23	N/C(=N\C(=O)c1nc(Cl)c(N)nc1N)NCc1ccc(Cl)c(Cl)c1 [compound B, 3′,4′-dichlorobenzamil]	100.68 ± 7.27	72.90 ± 15.85	44.58 ± 32.82	inhibited the migration of PMNs dose-dependently
